# Laboratory results as given in patent publication US9572786B2, “Use of capsiate or dihydrocapsidate” (Catholic University Industry Academy Cooperation Foundation, priority 2007, dated 2017).
# Legend:
# IL-6 = experiment: UV-induced pro-inflammatory cytokine mRNA, RT-PCR: IL-6; assay type: cell-based, human; details: HaCaT cells; 10, 25, 50 μM; UV 100 J/m^2; 4 hours
# Protocol: 1×10^6 HaCaT cells were placed on a 100 mm Petri dish and cultured for 24 hours in DMEM containing 10% FBS. Subsequently, the cells were cultured for 24 hours in DMEM containing 1% FBS until starvation. Then, after treating with capsiate at different concentrations (10 μM, 25 μM, 50 μM) for 30 minutes, followed by washing 3 times with PBS, UV was irradiated at an intensity of 100 J/m^2 to induce the production of cytokines. Immediately after the UV irradiation, the cells were washed again with PBS and further cultured for 4 hours in DMEM containing 1% FBS, which was treated with capsiate at the same concentration as in the pre-treatment.
# Then, the degree of mRNA expression for IL-6, IL-8 and TNF-α induced mainly in the skin by the UV irradiation was evaluated by RT-PCR in order to measure the inhibition effect against the pro-inflammatory cytokines.
# RNAs were extracted from the cells of each test group using Trizol (Invitrogen, USA) and used as template for PCR (PTC-225 Peltier thermal cycler, MJ Research, USA) to prepare cDNAs for each test group. Using the resultant cDNAs as template, the degree of mRNA expression for IL-6, IL-8 and TNF-α was measured by RT-PCR (Roter Gene 6000 series, Corbett Research, Australia) using commercial IL-6, IL-8 and TNF-α primers. […]
# JNK = experiment: MAPK signaling in mouse skin tissue, Western blotting: JNK; assay type: in vivo; details: hairless mouse; UV+CPT vs UV with acetone only
# Protocol: In order to investigate the intracellular mechanism (signaling) related with the inhibition of COX-2 expression by capsiate, Western blotting was carried out for MAPK signaling-related proteins (ERK, p-ERK, p38, p-p38 and JNK, p-JNK) as in Example 2-2, using proteins isolated from the mouse skin tissue.
# TNF-α = experiment: UV-induced TNF-α mRNA in hairless mouse skin, RT-PCR; assay type: in vivo; details: 200 μL of 1 mM topically 1 hour before UV 5 kJ/m^2 once, 6 hours later
# Protocol: In order to investigate the effect of capsiate on the production of IL-6 and TNF-α induced in skin tissue during inflammatory response, the inhibition ability of capsiate against the expression of the pro-inflammatory cytokines was evaluated in animal model as follows. Test groups were as follows: non-treated group—treated with acetone only without UV irradiation; test group A—treated with 200 μL of 1 mM capsiate dissolved in acetone without UV irradiation; UV group—treated with acetone and UV; test group B—treated with 200 μL of 1 mM capsiate dissolved in acetone followed by UV irradiation 1 hour later.
# To this end, acetone and capsiate were treated prior to UV irradiation. After treating with UV once at an intensity of 5 kJ/m^2, hairless mouse was euthanized 6 hours later. mRNA was extracted from the mouse tissue obtained by skin biopsy and RT-PCR was carried out as follows. For RNA extraction from the tissue, each mouse tissue obtained by skin biopsy was quickly frozen in liquid nitrogen and ground finely using a mortar. RNA was extracted from the mouse tissue using Trizol (Invitrogen, USA), and PCR (PTC-225 Peltier thermal cycler, MJ Research, USA) was carried out using it as template and using a commercial kit (reverse transcription system, Qiagen, USA). As a result, cDNA was prepared from each group. […]
# VEGF = VEGF expression in mouse skin, Western blotting; assay type: in vivo; details: treated prior to UV irradiation
# Protocol: In order to investigate the effect of capsiate on various intracellular angiogenesis-related expression factors, the inhibition effect of capsiate on angiogenesis factors induced by UV was evaluated using the mouse tissue of Example 5.
# Western blotting was carried out in the same manner as Example 6 using the proteins isolated from the mouse skin tissue of each test group in Example 6, in order to investigate of capsiate on VEGF, which plays an important role in angiogenesis. In order to investigate the level of VEGF expression, VEGF antibody (Santa Cruz, USA) and HRP-conjugated secondary antibody (1:10,000, Zymed) were used.
# IL-2 = experiment: Secretion of IL-2 by T cells, ELISA; assay type: cell-based, C57/BL6 mouse; details: mouse spleen T cells of Example 14-1; vs control group
# From the text: In order to investigate the effect of capsiate on activation of T cells, the production of IL-2 by the T cells the proliferation of which was induced in Example 14-1 was compared with the non-capsiate-treated control group. IL-2 is a T cell proliferation factor secreted from stimulated T cells and acts as a cytokine affecting the proliferation of T helper cells, cytotoxic T (TC) cells and natural killer (NK) cells, activation of T cells, proliferation of B cells, and production of antibody.
# Specifically, the degree of IL-2 production was measured by ELISA. IL-2 recognition antibody was attached on a 96-well plate. Next day, after suppressing non-specific recognition using blocking buffer (PBS containing 5% BSA), cultured T cells were added to the plate and incubated at room temperature for 4 hours. Subsequently, after incubating using biotinylated IL-2 secondary antibody (Becton Dikinson, USA), absorbance (540 nm) was measured using an ELISA reader using biotin-recognizing enzyme antibody (streptavidine-conjugated HRP, Becton Dikinson, USA), while varying the substrate.
# Lck = experiment: Tyrosine phosphorylation in T cells, Western blotting with anti-PY antibody; assay type: cell-based, C57/BL6 mouse; details: mouse spleen T cells; 5 and 25 uM; α-CD3 and α-CD4 or α-CD3
# Protocol: Western blotting was carried out using anti-tyrosine phosphorylation (anti-PY) antibody in order to investigate the mechanism by which the proliferation of T cells is inhibited by capsiate.
# Specifically, 5×10^5 of the T cells isolated in Example 14-1 was placed on a 96-well plate and capsiate was treated at concentrations of 5 and 25 uM. After treating with 2 μg/mL α-CD3 and α-CD4, or 2 μg/mL α-CD3, followed by incubation for 10 minutes in ice and then incubation for 10 minutes at 37° C., centrifuge was carried out. The cells obtained from the centrifuge was lysed using RIPA buffer containing 2 mM EDTA, 137 mM NaCl, 20 mM Tris-HCl (pH 8.0), 1 mM sodium vanadate, 10 mM NaF, 1 mM phenylmethanesulfonyl fluoride (PMSF), 1% NP-40, 10% glycerol and protease inhibitor cocktail, and subjected to SDS-PAGE electrophoresis using 10% acrylamide gel in order to isolate the proteins. The isolated proteins were transferred to a nylon membrane and tyrosine phosphorylated proteins were separated using mouse anti-PY antibody (Becton Dickison, USA) and anti-mouse IgG-HRP conjugation antibody (1; 10,000, Zymed) as the secondary antibody. The isolated proteins were detected by ECL (Amersham, USA) and visualized using RAS 3000 imaging system (Fuji Film, Japan).
smiles,measurement,setting,value
COc1cc(COC(=O)CCCC/C=C/C(C)C)ccc1O [capsiate],expression of IL-6 (mRNA) increased by UV irradiation,IL-6,significantly decreases
same,JNK (phosphorylation) in mouse skin tissue,JNK,no significant difference
same,UV-induced expression of TNF-α (mRNA) in skin tissue,TNF-α,decrease
same,level of VEGF expression in the mouse skin tissue,VEGF,decreased
same,IL-2 production by T cells,IL-2,significantly decreased
same,tyrosine phosphorylation in T cells,Lck,inhibited
